Experimental data from US20250171495A1, “MUTLI-TARGETED SERINE PROTEASE INHIBITORS FOR TREATMENT OF CANCER AND VIRAL INFECTION” (Washington University, priority 2023, published 2025).
Like-named read-outs stand apart in the source and are kept apart here.

Experiments:
Format in all cases: biochemical
[1] = biological target: T1, matriptase (Homo sapiens, UniProt Q9Y5Y6); assay: Fluorogenic kinetic enzyme inhibitor assay, matriptase
T1 construct: purchased R&D Systems 3946-SEB-010
T1 sequence (Q9Y5Y6 615-855 limits assumed): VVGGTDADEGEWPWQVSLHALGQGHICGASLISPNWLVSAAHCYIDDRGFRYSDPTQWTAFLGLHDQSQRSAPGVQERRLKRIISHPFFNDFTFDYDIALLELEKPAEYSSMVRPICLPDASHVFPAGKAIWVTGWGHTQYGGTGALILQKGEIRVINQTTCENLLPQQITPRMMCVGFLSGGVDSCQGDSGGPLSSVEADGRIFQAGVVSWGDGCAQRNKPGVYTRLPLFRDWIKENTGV

[2] = biological target: T2, hepsin (Homo sapiens, UniProt P05981); assay: Fluorogenic kinetic enzyme inhibitor assay, hepsin
T2 construct: purchased R&D Systems 4776-SE-010
T2 sequence (P05981 163-417 limits assumed): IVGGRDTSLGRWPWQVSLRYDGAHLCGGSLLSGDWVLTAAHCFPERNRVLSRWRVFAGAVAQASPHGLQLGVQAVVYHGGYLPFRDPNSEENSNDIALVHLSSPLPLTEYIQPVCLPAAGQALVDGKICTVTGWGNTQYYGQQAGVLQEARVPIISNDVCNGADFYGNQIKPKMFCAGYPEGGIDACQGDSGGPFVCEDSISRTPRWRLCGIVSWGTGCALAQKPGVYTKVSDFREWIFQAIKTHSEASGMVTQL
T2 sequence (P05981 1-162 partner limits assumed): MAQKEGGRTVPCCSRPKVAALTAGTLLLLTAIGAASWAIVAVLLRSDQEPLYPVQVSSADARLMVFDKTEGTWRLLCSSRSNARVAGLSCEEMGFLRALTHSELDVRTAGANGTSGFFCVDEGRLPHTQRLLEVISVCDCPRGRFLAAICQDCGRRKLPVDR

[3] = biological target: T3, HGFA (Homo sapiens, UniProt Q04756); assay: Fluorogenic kinetic enzyme inhibitor assay, HGFA
T3 construct: purchased R&D Systems 1514-SE-010
T3 sequence (Q04756 408-655 limits assumed): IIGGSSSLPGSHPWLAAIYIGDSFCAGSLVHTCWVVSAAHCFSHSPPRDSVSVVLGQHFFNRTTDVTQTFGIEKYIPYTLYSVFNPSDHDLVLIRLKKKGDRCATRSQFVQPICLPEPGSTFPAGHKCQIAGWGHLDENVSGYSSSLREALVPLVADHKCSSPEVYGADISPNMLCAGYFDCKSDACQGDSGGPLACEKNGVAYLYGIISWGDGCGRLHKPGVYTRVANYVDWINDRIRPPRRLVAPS
T3 sequence (Q04756 373-407 partner limits assumed): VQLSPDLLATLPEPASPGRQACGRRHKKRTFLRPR

[4] = biological target: Thrombin (Homo sapiens, UniProt P00734); assay: Fluorogenic assay, thrombin
[5] = biological target: T4, Factor Xa (Homo sapiens, UniProt P00742); assay: Fluorogenic assay, Factor Xa
T4 construct: TMPRSS2; Matriptase; Hepsin; HGFA; Thrombin; Factor Xa
T4 sequence (P00742 235-488 limits assumed): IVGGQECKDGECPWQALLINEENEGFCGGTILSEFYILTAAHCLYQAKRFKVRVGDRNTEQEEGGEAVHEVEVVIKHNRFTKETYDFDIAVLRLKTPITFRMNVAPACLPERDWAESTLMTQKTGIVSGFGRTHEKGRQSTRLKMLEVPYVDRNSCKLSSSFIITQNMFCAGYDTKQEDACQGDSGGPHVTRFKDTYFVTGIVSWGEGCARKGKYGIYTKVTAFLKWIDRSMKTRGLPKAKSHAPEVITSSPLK
T4 sequence (P00742 41-179 partner limits assumed): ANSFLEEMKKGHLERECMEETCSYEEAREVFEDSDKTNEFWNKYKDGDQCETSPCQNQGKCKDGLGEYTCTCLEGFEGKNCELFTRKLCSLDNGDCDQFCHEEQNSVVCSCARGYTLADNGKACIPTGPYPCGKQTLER

[6] = biological target: TMPRSS2 (Homo sapiens, UniProt O15393); assay: Fluorogenic kinetic enzyme inhibitor assay, TMPRSS2; parameters: purchased Cusabio Technology CSB-YP023924HU; details: read-out: TMPRSS2 IC50
Sequence of TMPRSS2 (O15393 106-492 limits assumed): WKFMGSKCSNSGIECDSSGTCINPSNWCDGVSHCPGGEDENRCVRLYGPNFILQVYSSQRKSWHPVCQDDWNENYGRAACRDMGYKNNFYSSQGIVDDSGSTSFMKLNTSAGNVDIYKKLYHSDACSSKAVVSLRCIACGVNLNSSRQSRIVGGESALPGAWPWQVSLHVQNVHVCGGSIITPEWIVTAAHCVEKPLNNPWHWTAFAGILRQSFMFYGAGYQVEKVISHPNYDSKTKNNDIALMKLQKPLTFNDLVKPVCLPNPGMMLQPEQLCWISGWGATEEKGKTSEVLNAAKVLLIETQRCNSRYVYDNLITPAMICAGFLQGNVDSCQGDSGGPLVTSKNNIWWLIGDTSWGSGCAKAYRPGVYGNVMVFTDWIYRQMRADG

Row | Compound | IC50 ([1]; read-out: Matriptase IC50) | IC50 ([2]; read-out: Hepsin IC50) | IC50 ([3]; read-out: HGFA IC50) | IC50 [4] | IC50 ([5]; read-out: Factor Xa IC50) | IC50 [6] | IC50 [1] | IC50 [2] | IC50 [3] | IC50 [5]
1 | N=C(N)NCCC[C@@H](NC(=O)[C@H](Cc1ccccc1)NC(=O)[C@H](CCC(N)=O)NCCc1ccccc1)C(=O)c1nc2ccccc2s1 [CA1033-1, N-[(S)-1-[N-(R)-1-[(1,3-benzothiazol-2-yl)carbonyl]-4-guanidinobutylcarbamoyl]-2-phenylethyl](S)-2-(phenethylamino)glutaramide] | 77.9 nM | 9.43 nM | 2870 nM | > 20000 nM | 16800 nM | 16.6 nM |  |  |  | 
2 | N=C(N)NCCC[C@H](NC(=O)[C@H](Cc1ccccc1)NC(=O)[C@H](CCC(N)=O)NCCc1ccccc1)C(=O)c1nc2ccccc2s1 [CA1033-2, N-[(S)-1-[N-(S)-1-[(1,3-benzothiazol-2-yl)carbonyl]-4-guanidinobutylcarbamoyl]-2-phenylethyl](S)-2-(phenethylamino)glutaramide] | 2.81 nM | 0.3 nM | 48.5 nM | 10200 nM | 1060 nM | 0.316 nM |  |  |  | 
3 | CN(C)[C@@H](CCC(N)=O)C(=O)N[C@@H](Cc1ccccc1)C(=O)N[C@H](CCCNC(=N)N)C(=O)c1nc2ccccc2s1 [CA1041-1, N-[(S)-1-[N-(R)-1-[(1,3-benzothiazol-2-yl)carbonyl]-4-guanidinobutylcarbamoyl]-2-phenylethyl](S)-2-(dimethylamino)glutaramide] | 144 nM | 123 nM | > 20000 nM | > 20000 nM | 7010 nM | 18.4 nM |  |  |  | 
4 | CN(C)[C@@H](CCC(N)=O)C(=O)N[C@@H](Cc1ccccc1)C(=O)N[C@@H](CCCNC(=N)N)C(=O)c1nc2ccccc2s1 [CA1041-2, N-[(S)-1-[N-(S)-1-[(1,3-benzothiazol-2-yl)carbonyl]-4-guanidinobutylcarbamoyl]-2-phenylethyl](S)-2-(dimethylamino)glutaramide] | 3.5 nM | 1.89 nM | 609 nM | > 20000 nM | 3300 nM | 0.86 nM |  |  |  | 
5 | N=C(N)NCCC[C@H](NC(=O)[C@H](Cc1ccccc1)NC(=O)[C@H](CCC(N)=O)NC(=O)c1ccccc1)C(=O)c1nc2ccccc2s1 [CA1043] | 0.88 nM | 0.11 nM | 8.45 nM | > 20000 nM | 1590 nM | 0.081 nM |  |  |  | 
6 | N=C(N)NCCC[C@@H](NC(=O)[C@H](Cc1ccccc1)NC(=O)[C@H](CCC(N)=O)N1CCCCC1)C(=O)c1nc2ccccc2s1 [CA1046-1, N-[(S)-1-[N-(R)-1-[(1,3-benzothiazol-2-yl)carbonyl]-4-guanidinobutylcarbamoyl]-2-phenylethyl](S)-2-piperidinoglutaramide] | 1780 nM | 105 nM | > 20000 nM | > 20000 nM | 12200 nM | 69.2 nM |  |  |  | 
7 | N=C(N)NCCC[C@H](NC(=O)[C@H](Cc1ccccc1)NC(=O)[C@H](CCC(N)=O)N1CCCCC1)C(=O)c1nc2ccccc2s1 [CA1046-2, N-[(S)-1-[N-(S)-1-[(1,3-benzothiazol-2-yl)carbonyl]-4-guanidinobutylcarbamoyl]-2-phenylethyl](S)-2-piperidinoglutaramide] | 41.4 nM | 0.37 nM | 704 nM | > 20000 nM | 2070 nM | 8.23 nM |  |  |  | 
8 | CC(=O)N[C@@H](Cc1cncn1COCc1ccccc1)C(=O)N[C@@H](CCCCNC(=N)N)C(=O)N[C@@H](CCC(C)C)C(=O)N[C@H](CCCNC(=N)N)C(=O)c1nc2ccccc2s1 [JH1143-1, N-[(R)-1-[(1,3-benzothiazol-2-yl)carbonyl]-4-guanidinobutyl](S)-2-[(S)-1-[(S)-2-acetylamino-3-{1-[(benzyloxy)methyl]-5-imidazolyl}propionylamino]-5-guanidinopentylcarbonylamino]-5-methylhexanamide] |  | 1.92 nM | 543 nM | 4890 nM | 4800 nM | 7.54 nM | 3.02 nM |  |  | 
9 | N=C(N)NCCC[C@H](NC(=O)[C@H](Cc1ccccc1)NC(=O)OCC1c2ccccc2-c2ccccc21)C(=O)c1nc2ccccc2s1 [MF1133, (S)-1-[N-(S)-1-[(1,3-benzothiazol-2-yl)carbonyl]-4-guanidinobutylcarbamoyl]-2-phenylethyl(9H-fluoren-9-yl)methanecarbamate] | 2560 nM | 2680 nM | 1930 nM | > 20000 nM | 28.4 nM | 19.7 nM |  |  |  | 
10 | CSCC[C@H](NC(C)=O)C(=O)N[C@@H](CCC(N)=O)C(=O)N[C@@H](Cc1ccccc1)C(=O)N[C@@H](CCCNC(=N)N)C(=O)c1nc2ccccc2s1 [MM3130, N-[(S)-1-[N-(S)-1-[(1,3-benzothiazol-2-yl)carbonyl]-4-guanidinobutylcarbamoyl]-2-phenylethyl](S)-2-[(S)-2-acetylamino-4-(methylthio)butyrylamino] glutaramide] |  |  |  | > 20000 nM | 342 nM | 0.142 nM | 0.552 nM | 0.134 nM | 36.4 nM | 
11 | CC(=O)N[C@@H](CC(C)C)C(=O)N[C@@H](CCC(N)=O)C(=O)N[C@@H](Cc1ccccc1)C(=O)N[C@@H](CCCNC(=N)N)C(=O)c1nc2ccccc2s1 [MM3131, N-[(S)-1-[N-(S)-1-[(1,3-benzothiazol-2-yl)carbonyl]-4-guanidinobutylcarbamoyl]-2-phenylethyl](S)-2-[(S)-2-acetylamino-4-methylvalerylamino]glutaramide] |  |  |  | > 20000 nM |  | 0.031 nM | 1.8 nM | 0.247 nM | 98.2 nM | 219 nM
12 | CCC(C)[C@H](NC(C)=O)C(=O)N[C@@H](CCC(N)=O)C(=O)N[C@@H](C)C(=O)N[C@@H](CCCNC(=N)N)C(=O)c1nc2ccccc2s1 (stereo partly drawn) [MM3178, N-[(S)-1-[N-(S)-1-[(1,3-benzothiazol-2-yl)carbonyl]-4-guanidinobutylcarbamoyl]ethyl](S)-2-[(2S)-2-acetylamino-3-methylvalerylamino]glutaramide] |  | 1.25 nM | > 20000 nM | > 20000 nM | 170 nM | 0.227 nM | 0.1 nM |  |  | 
13 | CCC(C)[C@H](NC(C)=O)C(=O)N[C@@H](CCC(N)=O)C(=O)N[C@@H](Cc1c[nH]c2ccccc12)C(=O)N[C@@H](CCCNC(=N)N)C(=O)c1nc2ccccc2s1 (stereo partly drawn) [MM3187, N-[(S)-2-(3-indolyl)-1-[N-(S)-1-[(1,3-benzothiazol-2-yl)carbonyl]-4-guanidinobutylcarbamoyl]ethyl](S)-2-[(2S)-2-acetylamino-3-methylvalerylamino]glutaramide] |  | 0.319 nM | 1450 nM | > 20000 nM | 129 nM | 2.19 nM | 1.23 nM |  |  | 
14 | CC(=O)N[C@H](Cc1c[nH]c2ccccc12)C(=O)N[C@@H](Cc1ccccc1)C(=O)N[C@@H](CCCNC(=N)N)C(=O)c1nc2ccccc2s1 [PK-1-89A1, N-[(S)-1-[(1,3-benzothiazol-2-yl)carbonyl]-4-guanidinobutyl](S)-2-[(R)-2-acetylamino-3-(3-indolyl)propionylamino]-3-phenylpropionamide] | 2.6 nM | 1.1 nM | 27 nM | > 20000 nM | 98 nM | 0.156 nM |  |  |  | 
15 | CC(=O)N[C@H](Cc1c[nH]c2ccccc12)C(=O)N[C@@H](CC(C)C)C(=O)N[C@@H](CCCNC(=N)N)C(=O)c1nc2ccccc2s1 [PK-1-91, N-[(S)-1-[(1,3-benzothiazol-2-yl)carbonyl]-4-guanidinobutyl](S)-2-[(R)-2-acetylamino-3-(3-indolyl)propionylamino]-4-methylvaleramide] | 39 nM | 1.6 nM | 104 nM | 9370 nM | 1440 nM | 0.026 nM |  |  |  | 
16 | CC(=O)N[C@@H](Cc1c[nH]c2ccccc12)C(=O)N[C@@H](Cc1ccccc1)C(=O)N[C@@H](CCCNC(=N)N)C(=O)c1nc2ccccc2s1 [PK-1-102A1, N-[(S)-1-[(1,3-benzothiazol-2-yl)carbonyl]-4-guanidinobutyl](S)-2-[(S)-2-acetylamino-3-(3-indolyl)propionylamino]-3-phenylpropionamide] | 5.7 nM | 7.6 nM | 329 nM | > 20000 nM | 21.6 nM | 0.388 nM |  |  |  | 
17 | CC(=O)N[C@@H](Cc1c[nH]c2ccccc12)C(=O)N[C@@H](CC(C)C)C(=O)N[C@@H](CCCNC(=N)N)C(=O)c1nc2ccccc2s1 [PK-1-104, N-[(S)-1-[(1,3-benzothiazol-2-yl)carbonyl]-4-guanidinobutyl](S)-2-[(S)-2-acetylamino-3-(3-indolyl)propionylamino]-4-methylvaleramide] | 25.7 nM | 0.93 nM | 76.3 nM | 17000 nM | 890 nM | 1.3 nM |  |  |  | 
